Experiments:
OT-1 CD8+ T cells = test: Co-culture of OT-1 cells with treated MCA205-Glob-SL8-intron cells, T cell activation by flow cytometry; type: cell-based, mouse
Protocol: MCA205-Glob-SL8-intron were plated at 1×10^5 cells in 12-well plates and incubated overnight. The next day, cells were treated with different concentrations of drugs for 24 hours. After treatment, cells were harvested with trypsin, washed twice with OT-1 Media (RPMI-1640, 10% FBS, 2mM L-glutamine, 50µM of 2-mercaptoéthanol, 100 IU/mL of Penicillin G, […]), and each condition was counted with a KOVA slide and Trypan-blue. For each tested condition 2×10^5 of treatedcells were plated in a 96-wells plate. The same day, lymph nodes from an OT1 mouse (C57B1/6J TCR-transgenic CD8^+ T cells specific for Kb -OVA257-264, obtained from Charles River #642OT1) were harvested. Lymph nodes were dissociated and filtered through a 40 µm filter and red blood cells were lysed with ACK buffer. 8×10^5 OT-1 cells were added to the MCA205-Glob-SL8-intron cells (E:T ratio of 4:1) and the plate was incubated overnight at 37°C. The next day, translocation to the golgi was blocked with brefeldin A (#420601, Biolegend) for 3h before cells were stained with Zombie Aqua (#423102, Biolegend) and antibodies described in Table 2, to measure T cell activation. Samples were acquired on a Cytek Aurora (Cytek Biosciences) spectral flow cytometer and data was analysed with FlowJo (V10) software (TreeStar, Inc.). Table 2: Panel of antibodies for the study of OT-1 CD8+ T-cells activation by MCA205-Glob-SL8-intron.
In their experiments, OT-1 cells were co-incubated with MCA205 cells expressing the globin-SL8-intron construct. To assess the production of antigenic peptide substrates, they measured OT-1 cell proliferation using FACS analysis. They analyzed the expression levels of early activation markers, CD69 and CD25, which are critical for the proliferation of activated T cells. For that purpose, MCA205 cells with the globin-SL8-intron construct were exposed to varying concentrations of compound 58 for 24 hours, followed by co-incubation with OT-1 cells.
Furthermore, inventors sought to characterize the activated OT-1 cell subset induced by this treatment. To do so, they examined the expression of CD44 and CD62L (L-selectin) markers, which delineate two major subsets of OT-1 CD8+ T cells following co-culture with MCA cells treated with compound 58: effector/memory (CD44^high/CD62L^low) and central memory (CD44^high/CD62L^high) CD8+ T cell subsets.
Inventors then evaluated the effector function of OT-1 cells post-co-culture with MCA cells treated with compound 58 by examining the expression of perforin.

20S proteasome = system: T1, 20S proteasome; test: Thermal Shift Assay (nanoDSF) with 20S; type: binding, human; details: 20S 50nM, compound at 100X (5µM, 0,1% DMSO)
T1 construct: purified 20S proteasome from human erythrocytes; purchased Biotechne E-360-050; host or cells: human erythrocytes
Protocol: Thermal shift assay was carried out with nano differential scanning fluorimetry (nanoDSF) using the Tycho NT.6 from Nanotemper and was performed at the I2BC platform (Gif-sur-Yvette). Samples were prepared in a final volume of 25µL in a 96-well plate prior to be loaded on the Tycho capillaries. Proteins were diluted in activity buffer (20mM Tris-HCl pH 7.4 and 20mM NaCl). After optimisation, REGγ concentration was set to 500nM and 20S concentration to 50nM. Compounds concentrations were determined as ratios to protein concentration and to stay below 0,5% of DMSO; accordingly, compounds with REGγ were tested at 40X (20µM, 0,4% DMSO) and at 100X (5µM, 0,1% DMSO) with 20S. A thermal ramp was applied from 20 to 95°C and fluorescence was followed at 350nm and 330 nm, measuring intrinsic fluorescence of the proteins from tryptophan and tyrosine residues. Binding was detected as a shift in the inflection temperature (Ti) compared to the DMSO control.
To assess the efficacy of molecule 58 in directly binding to REGγ, inventors conducted a thermal shift assay (TSA). TSA leverages the property of proteins to undergo unfolding at specific temperatures, and the interaction with a ligand can alter the thermal stability, leading to a shift in the unfolding temperature. In their study, inventors examined how the compound 58 interacted with REGγ and monitored the change in melting temperature (ΔTm).

[1] = MCA cells treated 24 hours, then co-culture with OT-1 cells

- change in melting temperature (ΔTm) (20S proteasome): no significant change in ΔTm
SMILES: Cc1ccc(N=Nc2ccc(C)cc2NC(=O)Nc2ccccc2F)cc1 [compound 58]
- frequency of CD69+ CD25+ OT-1 T cells (OT-1 CD8+ T cells; MCA205 cells treated 24 hours, then co-incubation with OT-1 cells, compared to untreated cells): increased frequency
- frequency of CD44^high/CD62L^low effector/memory cells (OT-1 CD8+ T cells; [1]): dose-dependent increase
- frequency of central memory CD44^high/CD62L^high cells (OT-1 CD8+ T cells; [1]): remained unchanged
- perforin expression of OT-1 cells (OT-1 CD8+ T cells; [1]): increased perforin expression
